ChEMBL document CHEMBL4393652, “Development of Isoselenocyanate Compounds' Syntheses and Biological Applications” (2019)

Test system: UACC-903
Experiment: Antitumor activity against human UACC-903 cells xenografted in Nude-Foxn1nu mouse assessed as reduction in tumor size after 24 hrs relative to control
Type: functional
Design: scale not given: the % may be the effect or the level left

**Q.** `[Se]=C=NCCCCc1ccccc1` [PHENYLBUTYL ISOSELENOCYANATE] was tested. Which Activity did it give?
**A.** 77%
